Reference: patent US20070037800A1, “Method of treating neurological disorders using clotrimazole and derivatives thereof” (EnVivo Pharmaceuticals, Inc., priority 2005, published 2007)
“And” between values parts separate entries of the source, which are not always exact repeats. Equal values may be shown once.

Experiments:
[1] = tested on: HD model flies (elav-GAL4 UAS-htt128Q); assay: Assay of locomotor activity (climbing speed) using the transgenic Drosophila HD model; assay type: in vivo; parameters: Early Speed Effect Size, Summary / Late Speed Effect Size, Summary / Early Speed Effect Size / Late Speed Effect Size / Early Speed Adj Value / Late Speed Adj Value / Early Speed Effect Size, combined campaigns / Late Speed Effect Size, combined campaigns: unit not given here; details: for Early Speed Effect Size, combined campaigns / Early Speed Percent TSA, combined campaigns / Late Speed Effect Size, combined campaigns / Late Speed Percent TSA, combined campaigns: drawing 84, drawing 89
Protocol: Female “activator” or “driver” flies were engineered to contain the neuronal specific drivers elav-GAL4 or nirvana-GAL4 in a heat shock-hid Y (phs-hidY or HS-hid+ on Y chomosome) background (Starz-Gaiano et al., 2001). The hid gene is a pro-apoptotic gene, which is expressed in this line by a heat inducible promoter. These flies can be heat shocked in bottles twice over 2 days for 2 hours to kill male larvae and thereby produce massive numbers of elav-GAL4 or nirvana-GAL4 virgin females.
For the mass production of males (either UAS-htt128Q[F27B]/UAS-htt128Q[F27B], the disease transgenes were moved into lines that contain an attached X-chromosome with the same phs-hid element (X^XPhs-hidY) used above. In this scheme the hid gene is present only in female flies and therefore is used to produce large numbers of male flies by heat shock. The massive collection of virgin female elav-GAL4 flies are crossed with the massive collection of males that contain the silent disease-transgene. Their progeny, the F1 generation, are the “assay flies” (e.g., elav-GAL4UAS-htt128Q[F27B]). These assay flies are robotically distributed into drugged assay vials.
The HD Drosophila model express exons 1 to 4 of the human huntingtin gene with 128Q repeats in exon 1. The construct was cloned into the Drosophila transformation vector, pUAST. These were then crossed to GAL4 driver lines that direct expression either to the eye (GMR-GAL4 promoter) or to neurons (elav-GAL4 promoter). […] Progressive degeneration of the photoreceptors was observed after several days of adult life. The properties of the HD128Q flies were consistent with those reported by others for two other strains in which exon-1 containing expanded repeats was expressed in the eye (Jackson et al., 1998; Steffan et al., 2001—US20040142859). To test the effects on motor function of the HD mutation, HD128Q lines were examined in which the transgene was expressed in all neurons. Motor function was assayed by tapping flies in a vial to the bottom and measuring the number of flies that are able to climb to a specified height within a specific length of time. When tapped to the bottom of a vial, wild-type flies rapidly climb to the top, where most of them remain. […] The decline in motor performance was progressive, leading to early death. […] The HD128Q model thus has a functional deficit that in its phenotypic and neuropathological characteristics appears to be related to that seen in the human disease. Moreover, as the deficit is quantifiable and reproducible, it is suitable for automated high-throughput screening.
Standard environmental conditions were followed to establish that different metrics detect differences between disease and control flies. A comparison of compound-treated HD flies and untreated HD flies was also included. The positive control compound tested was the Histone Deacetylase (HDAC) inhibitor Trichostatin-A (TSA).
In an assay run (typically corresponding to one day of an entire multi-day assay) the following process was followed. Each tube was dropped onto a surface, causing the flies to fall to the bottom of the tube and be subjected to impact shock stimulation. Their immediate negative geotaxis response to that event was thereafter captured in a 7.5 second movie. For each tube, this step was repeated five times, giving a total of five repeat videos per tube and run. The raw data for each video were analyzed and trajectories following the movements of individual flies in a tube were generated. The method for analyzing fly trajectories is described in published U.S. Patent Application 2004/0076318A1, which is hereby incorporated by reference in its entirety. The trajectories consisted of a list of x- and y-coordinates mapping out the positions of all the flies in the video, as well as measurements of size, orientation, length and width of the flies, with one list entry for every frame from when the fly started moving in one frame until it stopped in another. […]

[2] = tested on: KA-induced lesion in C57B1/6N mice; details: intra-striatal KA, Cosi et al., 2004; cited from earlier work
[3] = conc 100, days 1 to 7, campaigns drawing 83
[4] = conc 100, days 8 to 10, campaigns drawing 83
[5] = conc 300, days 1 to 7, campaigns drawing 80, drawing 83, drawing 85, drawing 88
[6] = conc 300, days 8 to 10, campaigns drawing 80, drawing 83, drawing 85, drawing 88
[7] = food conc 100 (unit not printed; b38: μM), days 1 to 7, single campaigns
[8] = food conc 100, days 8 to 10, single campaigns
[9] = food conc 100, days 8 to 10, vs DMSO carrier, single campaigns
[10] = food conc 200, campaign drawing 91, day range not given, late by column position
[11] = conc 100, days 1 to 7, campaigns drawing 80, drawing 83, drawing 88
[12] = conc 100, days 8 to 10, campaigns drawing 80, drawing 83, drawing 88

FC(F)(F)c1cccc(C(c2ccccc2)(c2ccccc2)N2CCOCC2)c1 [Example 1(g), 4-[(3-Trifluoromethylphenyl)-diphenylmethyl]-morpholine] showed a melting point of 158 to 160 °C.
With FC(F)(F)c1cccc(C(c2ccccc2)(c2ccccc2)n2ccnc2)c1 [1-(3-(TRIFLUOROMETHYL)TRITYL)IMIDAZOLE, 1-(3-(trifluoromethyl)trityl)imidazole] the “Early Speed Effect Size, combined campaigns” value [1, 3] was −0.159, the “Early Speed Percent TSA, combined campaigns” value [1, 3] was −4.3% and the “Late Speed Effect Size, combined campaigns” value [1, 4] was 0.344. The “Late Speed Percent TSA, combined campaigns” value [1, 4] was 7.6%, the “Early Speed Effect Size, combined campaigns” value [1, 5] was 1.003 and the “Early Speed Percent TSA, combined campaigns” value [1, 5] was 45.6%. For the same molecule, the “Late Speed Effect Size, combined campaigns” value [1, 6] was 1.798, the “Late Speed Percent TSA, combined campaigns” value [1, 6] was 68.2% and the “Early Speed Adj Value” [1, 7] was 10.37 and 10.38 and 10.47. For the same molecule, the “Late Speed Adj Value” [1, 8] was 5.094 and 5.776 and 5.811, the “Early Speed Adj Value” ([1]; food conc 300 (unit not given), days 1 to 7, single campaigns) was 11.11 and 10.33 (2×) and 10.9 and 11.1 and 11.02 and the “Late Speed Adj Value” ([1]; food conc 300, days 8 to 10, single campaigns) was 7.096 and 5.024 and 5.921 and 7.137 and 6.976 and 6.601. The “Late Speed Effect Size” value ([1]; food conc 300, days 8 to 10, vs DMSO carrier, single campaigns) was 2.88 and 1.62 and 1.96.
For Fc1ccc(C(c2ccccc2)(c2ccc(F)cc2)n2ccnc2)cc1, the “Early Speed Effect Size” value ([1]; food conc 50 (unit not printed; b38: μM), days 1 to 7, vs DMSO carrier, single campaigns) was 0.31, the “Early Speed Percent TSA” value ([1]; food conc 50, days 1 to 7, effect size as percentage of positive control TSA, single campaigns) was 16.8% and the “Late Speed Percent TSA” value ([1]; food conc 50, days 8 to 10, effect size as percentage of TSA, single campaigns) was 12.5%. The “Late Speed Effect Size” value ([1]; food conc 50, days 8 to 10, vs DMSO carrier, single campaigns) was 0.33, the “Early Speed Percent TSA” value ([1]; food conc 100, days 1 to 7, effect size as percentage of TSA, single campaigns) was 56.8% and the “Early Speed Effect Size” value ([1]; food conc 100, days 1 to 7, vs DMSO carrier, single campaigns) was 1.04. The “Late Speed Percent TSA” value ([1]; food conc 100, days 8 to 10, effect size as percentage of TSA, single campaigns) was 49.9%, the “Late Speed Effect Size” value [1, 9] was 1.32 and the “Early Speed Effect Size” value ([1]; food conc 200 (unit not given), campaign drawing 91, day range not given, early by column position) was 1.23. For the same molecule, the “Early Speed Percent TSA” value ([1]; food conc 200, campaign drawing 91, day range not given, early by column position) was 67.2%, the “Late Speed Effect Size” value [1, 10] was 0.8 and the “Late Speed Percent TSA” value [1, 10] was 30.2%.
In the case of NC(=O)c1ccccc1 [Benzamide], the “KA-induced decreases in striatal levels of NAD+ and ATP” value [2] is given as “partially prevented” and the “KA-induced lesions and astrogliosis” value [2] is given as “partially prevented”.
Work on Clc1ccccc1C(c1ccccc1)(c1ccccc1)N1CCOCC1 [Example 1(f), 4-[(2-Chlorophenyl)-diphenylmethyl]-morpholine] yielded a melting point of 205 °C.
With Cl.FC(F)(F)c1cccc(C(c2ccccc2)(c2ccccc2)n2ccnc2)c1 [1-(3-(trifluoromethyl)trityl)imidazole hydrochloride] the “Effect in Drosophila model of HD” value ([1]; vs carrier controls, metrics early speed (days 1-7) and late speed (days 8-10)) was “had therapeutic effect”.
In the case of c1ccc(C(c2ccccc2)(c2ccccc2)n2ccnc2)cc1 [1-triphenylmethyl imidazole], the “Early Speed Effect Size, combined campaigns” value [1, 11] is reported as 0.186, the “Early Speed Percent TSA, combined campaigns” value [1, 11] is reported as 9.6% and the “Late Speed Effect Size, combined campaigns” value [1, 12] is reported as 0.179. The “Late Speed Percent TSA, combined campaigns” value [1, 12] was 6.9%, the “Early Speed Adj Value” [1, 7] was 10.62 and 9.998 and 10.71 and 11.18 and 10.51 and 10.31 and the “Early Speed Adj Value” ([1]; food conc 100 (unit not printed; b38: μM), days 1 to 7, single campaigns, listed as 1-(triphenylmethyl)imidazole) was 10.62 and 10.71. The “Late Speed Adj Value” [1, 8] was 5.547 and 5.811 and 4.932 and 5.407 and 5.092 and 5.877, the “Late Speed Adj Value” ([1]; food conc 100, days 8 to 10, single campaigns, listed as 1-(triphenylmethyl)imidazole) was 5.81 and 5.41 and the “Late Speed Effect Size” value [1, 9] was 0.86 and 0.62.
